Assay: xn = mol fraction of the nth substance listed

CCCCCCc1ccccc1 + CCCCCCCCCCCCCCCC
viscosity [mPa·s], 102 kPa
Conditions	x1 = 0.1344	x1 = 0.259	x1 = 0.3742	x1 = 0.4819	x1 = 0.5823	x1 = 0.6747	x1 = 0.765	x1 = 0.848	x1 = 0.9262
293.15 K	3.12	2.85	2.63	2.43	2.25	2.11	1.98	1.86	1.77
303.15 K	2.49	2.3	2.13	1.98	1.85	1.74	1.64	1.55	1.47
313.15 K	2.04	1.9	1.76	1.65	1.55	1.46	1.38	1.31	1.25
323.15 K	1.7	1.59	1.49	1.4	1.32	1.25	1.18	1.13	1.08

CCC(C)(C)O + CO
298.15 K, 101.33 kPa
Conditions	viscosity [mPa·s]
x2 = 0.1504	3.673
x2 = 0.2963	3.295
x2 = 0.3807	2.941
x2 = 0.4164	2.789
x2 = 0.4914	2.41
x2 = 0.6011	1.88
x2 = 0.7145	1.404
x2 = 0.7989	1.074
x2 = 0.8988	0.788

CC(=O)CC(C)=O + CCCO
303.15 K, 101 kPa
Conditions	viscosity [mPa·s]
x1 = 0.05	1.453
x1 = 0.1	1.271
x1 = 0.2999	0.922
x1 = 0.4999	0.769
x1 = 0.6999	0.697
x1 = 0.8994	0.673
x1 = 0.9487	0.667

CCCCC(C)O (stereo not drawn) + CN(C)C=O
viscosity [mPa·s], 101 kPa
Conditions	x2 = 0.1088	x2 = 0.1532	x2 = 0.2402	x2 = 0.3448	x2 = 0.441	x2 = 0.5601	x2 = 0.6546	x2 = 0.7434	x2 = 0.843	x2 = 0.9374
298.15 K	3.26	3.03	2.7	2.41	2.17	1.87	1.63	1.4	1.17	0.97
303.15 K	2.67	2.49	2.23	1.99	1.79	1.56	1.39	1.23	1.05	0.87
308.15 K	2.19	2.01	1.8	1.61	1.47	1.3	1.18	1.06	0.93	0.8
313.15 K	1.7	1.53	1.36	1.23	1.13	1.03	0.96	0.89	0.81	0.73

Cn1ccnc1 + CO
viscosity [mPa·s]
Conditions	298.15 K	308.15 K	318.15 K
100 kPa, x1 = 0.0511	0.6235	0.5549	0.4923
100 kPa, x1 = 0.1008	0.7071	0.6136	0.5376
100 kPa, x1 = 0.1961	0.8597	0.7399	0.6379
100 kPa, x1 = 0.279	0.9763	0.8372	0.7265
100 kPa, x1 = 0.3965	1.159	0.9854	0.849
100 kPa, x1 = 0.5013	1.298	1.098	0.942
100 kPa, x1 = 0.6101	1.429	1.203	1.029
100 kPa, x1 = 0.6941	1.514	1.277	1.088
100 kPa, x1 = 0.7955	1.607	1.348	1.151
100 kPa, x1 = 0.8414	1.645	1.377	1.174
100 kPa, x1 = 0.9501	1.727	1.445	1.23
101 kPa, x1 = 0.0502	–	0.5358	–
101 kPa, x1 = 0.1011	–	0.5959	–
101 kPa, x1 = 0.2	–	0.7153	–
101 kPa, x1 = 0.3006	–	0.8325	–
101 kPa, x1 = 0.4	–	0.9415	–
101 kPa, x1 = 0.4999	–	1.039	–
101 kPa, x1 = 0.5999	–	1.128	–
101 kPa, x1 = 0.7002	–	1.207	–
101 kPa, x1 = 0.7985	–	1.278	–
101 kPa, x1 = 0.8958	–	1.336	–
101 kPa, x1 = 0.9433	–	1.359	–

[2H]O[2H] + [Br-].[K+]
viscosity [mPa·s], 101 kPa
Conditions	x2 = 0.012	x2 = 0.0375	x2 = 0.056	x2 = 0.067	x2 = 0.073	x2 = 0.081
298.15 K	1.086	1.046	1.024	1.018	1.03	1.047
308.15 K	0.854	0.856	0.853	0.85	0.868	0.884
318.15 K	0.715	0.725	0.732	0.739	0.754	0.767

CN(C)c1ccccc1 + CCCCOCCO
viscosity [mPa·s], 101.3 kPa
Conditions	x2 = 0.0991	x2 = 0.2007	x2 = 0.3163	x2 = 0.3988	x2 = 0.4955	x2 = 0.5977	x2 = 0.6989	x2 = 0.7971	x2 = 0.8968
298 K	1.298	1.369	1.479	1.586	1.715	1.88	2.076	2.281	2.555
303 K	1.184	1.245	1.338	1.42	1.524	1.666	1.825	2.002	2.23
308 K	1.096	1.14	1.221	1.291	1.384	1.501	1.643	1.79	1.991
313 K	1.022	1.063	1.129	1.186	1.266	1.369	1.486	1.617	1.781
318 K	0.947	0.984	1.041	1.089	1.156	1.217	1.346	1.459	1.601

C=CC#N + CCCCCCCO
viscosity [mPa·s], 101.33 kPa
Conditions	x1 = 0.1047	x1 = 0.206	x1 = 0.3057	x1 = 0.4142	x1 = 0.5106	x1 = 0.6206	x1 = 0.7044	x1 = 0.8027	x1 = 0.9033
298.15 K	4.015	2.967	2.212	1.627	1.238	0.891	0.705	0.54	0.425
303.15 K	3.469	2.587	1.958	1.441	–	0.815	0.652	0.508	0.403
308.15 K	3	2.273	1.73	1.296	1.013	0.75	0.605	0.478	0.383

O=C[C@@H](O)[C@@H](O)[C@H](O)[C@H](O)CO + O
viscosity [mPa·s], 101 kPa
Conditions	293.15 K	303.15 K	308.15 K	313.15 K
x1 = 0.0026	1.052	0.8259	–	0.6702
x1 = 0.005	1.116	0.8625	0.7717	0.6965

C=CC#N + Cc1cc(C)cc(C)c1
307.4 K, 101.33 kPa
Conditions	viscosity [mPa·s]
x2 = 0.121	0.551
x2 = 0.3367	0.495
x2 = 0.5736	0.424
x2 = 0.649	0.406
x2 = 0.7535	0.373
x2 = 0.9118	0.332

From the CheMixHub viscosity set
